From the NIST ThermoML archive (doi:10.1021/je900042q)
± gives the expanded uncertainty stated by the source.

What was measured:
[1] = refractive index (Na D-line) (dimensionless); conditions: 298.15 K; 101.33 kPa; Liquid; Standard Abbe refractometry
[2] = Liquid; for mass density: 298.15 K, 101.33 kPa; for vapor or sublimation pressure: Ebulliometric method (Recirculating still)

Compound	refractive index [1]	mass density [2] [kg/m3]	vapor or sublimation pressure ([2]; 418.69 K) [kPa]	vapor or sublimation pressure ([2]; 341.49 K) [kPa]	vapor or sublimation pressure ([2]; 355.35 K) [kPa]
CCCCOC(=O)CC [butyl propanoate]	1.3992 ± 0.0005	870.88 ± 0.65	101.3 ± 0.3		
CC(C)OC(C)C [diisopropyl ether]	1.3652 ± 0.0005	718.32 ± 0.96		101.3 ± 0.3	
CC(C)O [propan-2-ol]	1.3754 ± 0.0005	782.69 ± 0.24			101.3 ± 0.2
